{"source": "patent US5833994A", "about": "“Use of the AH receptor and AH receptor ligands to treat or prevent cytopathicity of viral infection” (Paracelsian, Inc., priority 1997, dated 1998)", "key": {"[1]": {"tested_on": "transformed, cancerous cells", "settings": "cited from earlier work"}, "[2]": {"settings": "high dosages over a prolonged period; cited from earlier work"}, "Ah receptor [3]": {"molecular_target": "T1, Ah receptor (Cavia porcellus, UniProt Q6J287)", "T1 sequence (Q6J287 1-846)": "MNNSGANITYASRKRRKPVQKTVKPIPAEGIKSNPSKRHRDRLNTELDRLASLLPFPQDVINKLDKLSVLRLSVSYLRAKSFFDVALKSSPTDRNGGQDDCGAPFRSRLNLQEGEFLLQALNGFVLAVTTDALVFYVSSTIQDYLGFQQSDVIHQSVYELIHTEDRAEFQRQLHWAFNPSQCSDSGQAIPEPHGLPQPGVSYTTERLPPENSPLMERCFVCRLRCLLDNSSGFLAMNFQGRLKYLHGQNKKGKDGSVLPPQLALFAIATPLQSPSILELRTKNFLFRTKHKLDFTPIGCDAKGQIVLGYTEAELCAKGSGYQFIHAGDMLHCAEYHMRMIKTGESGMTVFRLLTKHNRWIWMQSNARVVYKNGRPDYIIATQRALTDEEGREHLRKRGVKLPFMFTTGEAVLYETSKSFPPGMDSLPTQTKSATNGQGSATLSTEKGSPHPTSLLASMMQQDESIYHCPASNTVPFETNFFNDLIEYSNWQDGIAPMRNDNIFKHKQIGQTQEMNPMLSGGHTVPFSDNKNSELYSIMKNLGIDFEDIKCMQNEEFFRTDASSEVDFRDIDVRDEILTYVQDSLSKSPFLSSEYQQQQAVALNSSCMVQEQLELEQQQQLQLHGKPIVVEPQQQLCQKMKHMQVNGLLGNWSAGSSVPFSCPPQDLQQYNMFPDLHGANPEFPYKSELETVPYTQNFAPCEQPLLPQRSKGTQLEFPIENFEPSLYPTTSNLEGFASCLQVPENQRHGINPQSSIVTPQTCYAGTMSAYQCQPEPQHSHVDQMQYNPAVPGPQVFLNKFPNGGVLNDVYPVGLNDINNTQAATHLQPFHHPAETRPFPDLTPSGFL", "assay": "Inhibition of Ah receptor transformation, antagonist test (Ah-immunoassay, 0.5 nM TCDD)", "experimental": "Cytosol was prepared as described in methods and treated with TCDD, DMSO or TCM extract to make 1) 0.5 nM TCDD, 2) 0.1% DMSO, or 3) 500 μg/mL TCM extract, respectively. The treated cytosol was serially diluted in a neutravidin-coated ELISA plate (Pierce, Rockford, Ill.). […] To treat for Ah receptor agonist activity, extracts were diluted in 0.5 nM TCDD treated cytosol to 250, 125, and 62.5 μg/mL of TCM extracts.\nTen mL aliquots of cytosol were thawed and pooled, generally 20 mL per ELISA plate. For each 20 mL of cytosol, 10 μL of thawed DRE stock and 1 mL HEDG in 4M NaCl were added.\n0.5 nM TCDD Diluent for extracts (detection of antagonists): The cytosol is treated with 1 μl of 1 μM TCDD per 2 mL cytosol (0.5 nm).\n500 μg/mL extracts (detection of antagonists): 1 μL of test extract (500 mg/mL in DMSO) in 1 mL 0.5 nM TCDD-treated cytosol (500 μg/mL final concentration of extract in cytosol).\nSerial dilution's of the extracts and/or TCDD treated cytosol into DMSO-treated cytosol are done as required by the experiment and are described in the examples.\nThe ELISA plate containing the treated cytosol is incubated with gentle rocking for 2 hours at 30° C. to allow the transformation of Ah receptor, binding of Ah receptor with ARNT, and binding of the Ah receptor/ARNT complex to the biotinylated DRE, and binding of the biotinylated DRE to the neutravidin bound to the ELISA plate.\nAfter 2 hours the plate is washed 3 times with 400 μL TBS plus 0.02% Tween 20 per well per wash and 200 μL of the working dilution of anti-ARNT added to all wells. The plate is again incubated with gentle rocking at 30° C. for 1 hour. After 1 hour the plate is washed as before and a working dilution (1:4000) of anti-rabbit/alkaline phosphatase conjugate is added to all wells. The plate is incubated for a further 1 hour at 30° C. with gentle rocking and then washed as before. PNPP stock is added to each well (200 μL) and the plate is incubated for 1 hour at 30° C., at which time it is read at 405 nm in an ELISA plate reader and the milli O.D.'s of the wells are recorded.\nTCM extracts were tested for their ability to inhibit the transformation of the Ah receptor."}, "[4]": {"tested_on": "HIV envelope gp120/41-induced syncytia formation in CD4+T cell lines (HIVenv 2-8 co-culture)", "assay": "Inhibition of HIVenv 2-8-induced syncytia formation / cell death (HIV-1 co-culture assay)", "assay_type": "cell-based", "settings": "for Estimated IC50 (Syncitia Quantification), inhibition of HIV-induced cytopathicity: Table 1", "protocol": "Sourcing of Ah Receptor Ligands: The Ah receptor ligands 2,3,7,8-Tetrachlorodibenzo-p-dioxin, 3,3',4,4',5-Pentachlorobiphenyl, 3,3',4,'4-Tetrachlorobiphenyl, and 2-Monochlorodibenzo-p-dioxin compounds were purchased from Accustandard (Cambridge, Mass.). α-naphthoflavone was purchased from Sigma (St. Louis, Mo.). Stock solutions of each compound were prepared by dissolution in DMSO at a 1000X concentration, i.e. the highest concentration tested was diluted by 1000-fold.\nBioassay Procedure: The cell lines utilized in the assay protocol include the following: HIVenv 2-2 (non-cytopathic), HIVenv 2-8 (cytopathic), Jurkat CD4+T cell line (clone E6-1), and SupT1. Cell lines were cultured in RPMI medium (Gibco, Grand Island, N.Y.) supplemented with L-glutamine (Sigma, St. Louis, Mo.) and 10% FBS-HI (Intergen). The Jurkat CD4+T cell line was obtained from American Type Culture Collection (Bethesda, Md.). All other cell lines were obtained from the National Institutes of Health. The HIVenv 2-2 or HIVenv 2-8 cells were plated with both CD4+T cell lines (1×10^3 cells per cell line in 16 μL of media.) in a 96-well tissue culture plate containing 50 μL of media with compound to be tested yielding a final volume of approximately 100 μL. The plates were then gently shaken to ensure adequate mixing of the assay components. Cells were then co-cultured at 5% CO2, 37C., and 95% humidity for 24 to 48 hours. The time points were chosen for the convenience, cytopathic changes become evident in the cell cultures used within a 2 to 4 hour period, becoming more and more prominent with time.\nData Reduction for this ELISA: HIVenv 2-2 co-culture ELISA values are used as the background for HIVenv 2-8 co-culture values. Dose responses are then plotted with dose along the x-axis and the background corrected optical density values on the y-axis.\nPositive and Negative Controls: The use of the HIVenv 2-2 cell line serves as a negative control for induction of cytopathicity.\n(§1) Interpretation of the Test: A positive response was defined as a dose-related decrease in syncytia formation in excess of 50% compared to HIVenv 2-8 co-cultures alone. Calculation of median effective doses was estimated by visual observation and by quantification of syncitia in 10X power microscope fields.\nThe Materials and Methods used in the testing of the various dibenzofuran compounds were the same as those used in Example 1 above. This includes the use of the same controls, cell lines, and assay procedures.\nas §1, with “fields. Another procedure which provides data similar to the Bioassay procedure just described allows for quantification of changes in the co-culture cells through an ELISA method, not as reliant on visual observation. […]” for “fields.”"}, "Ah receptor [5]": {"tested_on": "Ah receptor", "settings": "literature; cited from earlier work"}, "Ah receptor [6]": {"molecular_target": "T1, Ah receptor", "assay": "Ah receptor transformation, agonist test (Ah-immunoassay, absence of TCDD)", "assay_type": "biochemical, Guinea pig", "protocol": "Cytosol was prepared as described above.\nDiluent for TCDD dose response, diluent for extracts (detection of agonists), and negative control: The cytosol is treated with 1 μL DMSO per 1 mL cytosol (-).\n1 nM TCDD treated, positive control. […] DMSO diluent for detection of agonists: the cytosol is treated with μL DMSO per 1 mL cytosol. (1 nm final concentration of TCDD)."}, "Cyclin B [7]": {"tested_on": "Cyclin B", "assay": "Inhibition of cyclin B overexpression (cyclin B ELISA; FIGS. 2 and 3)", "assay_type": "cell-based", "settings": "FIG. 2 / FIG. 3", "protocol": "Cyclin B ELISA procedure: The overexpression Cyclin B has become associated with HIVenv 2-8 cytopathicity. This biochemical response and it's inhibition by Ah receptor ligands has been assayed by ELISA. Following 24 hours of co-culture in 96 well microtiter tissue culture plates, the cells are washed 1X with PBS buffer and then lysed with 50 μL lysis buffer (50 mM Tris, […], 10% glycerol, 1% NP-40) with shaking at 4° C. for 30 minutes. Thirty microliters of the cell lysate were then transferred into Immulon 4™ ELISA strip plates and 70 μL of coating buffer (0.2M Borate pH 10.5) added to bring the final microtiter well volume to 100 μL The plates were then incubated at 37° C. for 1 hour to allow for coating. The plates are then washed 3X with 300 μl TBST (20 mM Tris, 150 mM NaCl, 0.05% Tween 20, pH 7.5), incubated with 125 μL of blocking solution for 5 minutes, washed 3X, incubated with horseradish peroxidase labeled anti-mouse IgG for 1 hour at room temperature, washed 3X, and then incubated with 100 μL TMB substrate for 30 minutes at room temperature. Stop solution (2.5M sulfuric acid, 100 μL) was then added to prevent further color development and the plate was read at an optical density of 450 nm.\nData Reduction for this ELISA: HIVenv 2-2 co-culture ELISA values are used as the background for HIVenv 2-8 co-culture values. […]"}, "Cyclin B [8]": {"tested_on": "Cyclin B", "assay": "Inhibition of cyclin B overexpression, western blot densitometry", "assay_type": "cell-based", "settings": "TCDD, 10 nM; mean ± standard error, n=5 or 6; 2-8 co-culture 61.88, 2-2 co-culture 10.14", "protocol": "(§2) The expression of the protein kinase c-Mos was induced in addition to alterations in cell cycle (CDK1, cyclin B) and apoptotic (Bcl-2 and Bax) protein concentrations and phosphorylation status. CDK1 became hyperphosphorylated whereas cyclin B, Bcl-2, and Bax expression were elevated. Assay for these biochemical changes was performed by western blot analysis using equal amounts of cell lysate proteins derived from cells cultured with the respective Ah receptor ligands. Responses were quantified by scanning densitometry.\n(§3) Data from Table 2 represents the mean ± standard error of scanning densitometric units (n=5 or 6 individual scans from separate experiments).Doses used were as follows: TCDD, 10 nM; Substituted Furans (6-nitro 1,3,8-trichlorodibenzofuran; 6-isopropyl, 1,3,8-trichlorodibenzofuran; 6-methyl, 1,3,8-trichlorodibenzofuran; 1-bromo, 6-methyl, 3,8-dichlorodibenzofuran), 2 μM. All four alkyl substituted furan compounds that were tested yielded approximately equivalent responses so their responses were combined."}, "CDK1": {"tested_on": "CDK1", "assay": "Inhibition of CDK1 hyperphosphorylation, western blot densitometry", "assay_type": "cell-based", "settings": "TCDD, 10 nM; mean ± standard error, n=5 or 6; 2-8 co-culture 44.27, 2-2 co-culture 10.41", "protocol": "as §2, §3"}}, "note": "“Also recorded” adds a separate entry of the source.", "data": [{"smiles": "O=c1c(O)c(-c2ccc(O)c(O)c2)oc2cc(O)cc(O)c12", "note": "[Quercetin]", "values": [{"measurement": "anti-proliferative effect", "setting": "[1]", "result": "anti-proliferative effect on those transformed, cancerous cells"}, {"measurement": "genotoxicity / carcinogenic activity", "setting": "[2]", "result": "genotoxic compound, that may initiate carcinogenic activity in certain tissues"}, {"measurement": "IC50", "setting": "Ah receptor [3]", "result": "~9930", "unit": "nM"}, {"measurement": "inhibition of Ah receptor transformation / antagonist activity (words)", "setting": "Ah receptor [3]; 0.5 nM TCDD", "result": "does present antagonistic activity towards the Ah receptor"}, {"measurement": "inhibition of Ah receptor transformation / antagonist activity (words)", "setting": "Ah receptor [3]; 0.5 nM TCDD, listed as quercetin", "result": "antagonistic activity towards the Ah receptor at all doses tried"}, {"measurement": "Quercetin interaction with the Ah receptor, Milli O.D. Reading", "setting": "Ah receptor [3]; Table 12, 2.5 μg/mL", "result": 480, "unit": "Milli O.D."}, {"measurement": "Quercetin interaction with the Ah receptor, Milli O.D. Reading", "setting": "Ah receptor [3]; Table 12, 5 μg/mL", "result": 320, "unit": "Milli O.D."}, {"measurement": "Quercetin interaction with the Ah receptor, Milli O.D. Reading", "setting": "Ah receptor [3]; Table 12, 10 μg/mL", "result": 260, "unit": "Milli O.D."}, {"measurement": "Quercetin interaction with the Ah receptor, Milli O.D. Reading", "setting": "Ah receptor [3]; Table 12, 20 μg/mL", "result": 210, "unit": "Milli O.D."}]}, {"smiles": "O=c1cc(-c2ccccc2)oc2c1ccc1ccccc12", "note": "[α-naphthoflavone]", "values": [{"measurement": "inhibition of syncytia formation / cytopathicity", "setting": "[4]", "result": "correspondingly weaker activity; also recorded: also effective at inhibiting syncytia formation"}, {"measurement": "Estimated IC50 (Syncitia Quantification), inhibition of HIV-induced cytopathicity", "setting": "[4]", "result": 350, "unit": "nM"}, {"measurement": "known Ah receptor agonism/antagonism", "setting": "Ah receptor [5]", "result": "known partial agonist and antagonist of the Ah receptor; also recorded: described to act as an Ah receptor antagonist by inhibiting TCDD-induced Ah receptor transformation to a DNA binding form"}, {"measurement": "ability to transform the Ah receptor / agonist activity", "setting": "Ah receptor [6]; absence of TCDD", "result": "very weak agonist of the Ah receptor; also recorded: did not reach the EC50 of TCDD"}, {"measurement": "IC50, inhibition of Ah receptor transformation (estimated)", "setting": "Ah receptor [3]; 0.5 nM TCDD", "result": 18600, "unit": "nM"}, {"measurement": "inhibition of Ah receptor transformation / antagonist activity (words)", "setting": "Ah receptor [3]; 0.5 nM TCDD", "result": "more potent antagonist of the Ah receptor"}]}, {"smiles": "COC1C=CC=C(C)C(=O)NC2=CC(=O)C=C(C2=O)C(OC)C(C)CC(OC)C(OC)C(C)C=C(C)C1OC(N)=O", "note": "(centres unmarked) [Herbimycin A, herbimycin A]", "values": [{"measurement": "inhibition of syncytia formation / cytopathicity", "setting": "[4]", "result": "block the HIVenv 2-8 induced cytopathic effect"}, {"measurement": "Estimated IC50 (Syncitia Quantification), inhibition of HIV-induced cytopathicity", "setting": "[4]", "result": 750, "unit": "nM"}, {"measurement": "Estimated IC50 (Syncitia Quantification), inhibition of HIV-induced cytopathicity, second value in brackets", "setting": "[4]; Table 1, positive control", "result": 430, "unit": "nM"}, {"measurement": "inhibition of cyclin B overexpression (figure legend)", "setting": "Cyclin B [7]", "result": "inhibition of cyclin B overexpression"}]}, {"smiles": "Clc1cc2c(cc1Cl)Oc1cc(Cl)c(Cl)cc1O2", "note": "[2,3,7,8-TCDD, 2,3,7,8-Tetrachlorodibenzo-p-dioxin]", "values": [{"measurement": "inhibition of syncytia formation / cytopathicity", "setting": "[4]", "result": "most effective compound and strongest Ah receptor agonist"}, {"measurement": "Estimated IC50 (Syncitia Quantification), inhibition of HIV-induced cytopathicity", "setting": "[4]", "result": 2, "unit": "nM"}, {"measurement": "Cyclin B (inhibition of cyclin B overexpression)", "setting": "Cyclin B [8]", "result": "9.32 ± 2.7 scanning densitometric units"}, {"measurement": "EC50", "setting": "Ah receptor [6]", "result": 0.5, "unit": "nM"}, {"measurement": "Milli O.D. of TCDD control", "setting": "Ah receptor [6]; Table 12 footnote, .5 nM TCDD, BG subtracted, read at 450 nm", "result": 850, "unit": "Milli O.D."}, {"measurement": "inhibition of cyclin B overexpression (figure legend)", "setting": "Cyclin B [7]", "result": "inhibition of cyclin B overexpression"}, {"measurement": "CDK1 Phosphorylation", "setting": "CDK1", "result": "11.13 ± 3.3 scanning densitometric units"}]}]}
